Here are results for 2 compounds from patent publication US10206909B2, “3-(1H-pyrrolo[2,3-B]pyridin-2-yl)-1H-pyrazolo[4,3-B]pyridines and therapeutic uses thereof” (Samumed, LLC, priority 2015, dated 2019).

Holding throughout (format): cell-based
For assay [1], the system named is Wnt activity (Sp5-Luc reporter, SW480 colon carcinoma cells). Nature of the assay: Wnt activity screening assay: Sp5-Luc reporter gene assay in SW480 cells. The following applies: Homo sapiens, SW480 cells, overnight incubation. An excerpt:
The screening assay for Wnt activity is described as follows. Reporter cell lines can be generated by stably transducing cancer cell lines (e.g., colon cancer) or primary cells (e.g., IEC-6 intestinal cells) with a lentiviral construct that includes a Wnt-responsive promoter driving expression of the firefly luciferase gene.
SW480 colon carcinoma cells were transduced with a lentiviral vector expressing luciferase with a human Sp5 promoter consisting of a sequence of eight TCF/LEF binding sites. SW480 cells stably expressing the Sp5-Luc reporter gene and a hygromycin resistance gene were selected by treatment with 150 μg/mL of hygromycin for 7 days. These stably transduced SW480 cells were expanded in cell culture and used for all further screening activities. Each compound was dissolved in DMSO as a 10 mM stock and used to prepare compound source plates. Serial dilution (1:3, 10-point dose-response curves starting from 10 μM) and compound transfer was performed using the ECHO 550 (Labcyte, Sunnyvale, Calif.) into 384-well white solid bottom assay plates (Greiner Bio-One) with appropriate DMSO backfill for a final DMSO concentration of 0.1%. For Sp5-Luc reporter gene assays, the cells were plated at 4,000 cells/well in 384-well plates with medium containing 1% fetal bovine serum and incubated overnight at 37° C. and 5% CO2. Following incubation, 20 μl of BrightGlo luminescence reagent (Promega) was added to each well of the 384-well assay plates. The plates were placed on an orbital shaker for 2 min and then luminescence was quantified using the Envision (Perkin Elmer) plate reader. Readings were normalized to DMSO only treated cells, and normalized activities were utilized for EC50 calculations using the dose-response log (inhibitor) vs. response -variable slope (four parameters) nonlinear regression feature available in GraphPad Prism 5.0 (or Dotmatics). For EC50 of >10 μM, the percent inhibition at 10 μM is provided.

In another assay the test system is SW480 colon cancer cells. Briefly: Cell viability assay (CellTiter-Blue). The note with it: Homo sapiens, 96 h; SW480 cell viability, four days, CellTiter-Blue. As to the method: Representative compounds were screened using the following assay procedure to assess the effect on cell viability as described below.
Each compound was dissolved in DMSO as a 10 mM stock and used to prepare compound source plates. Serial dilution (1:3, 8-point dose-response curves from 10 μM to 0.0045 μM) and compound transfer was performed using the ECHO 550 (Labcyte, Sunnyvale, Calif.) into 96-well clear bottom, black-walled plates (Corning-Costar).
Approximately 2×10^3 SW480 colon cancer cells were seeded into each well and allowed to incubate in the presence or absence of compound for four days at 37° C./5% CO2. Eight replicates of DMSO-treated cells served as controls and cells treated with compound were performed in duplicate.
After incubation, 20 μL of CellTiter-Blue (Promega) was added to each well allowed to incubate for approximately 3 hours. This reagent was a buffered solution which contains resazurin, metabolically active cells were able to reduce rezarurin (blue) into resorufin (pink) which was highly fluorescent. This measured fluorescence was used as a readout for cell viability.
After incubation, the plates were read at Ex 560 nm Em 590 nm (Cytation 3, BioTek). Dose-response curves were generated and EC50 concentration values were calculated using non-linear regression curve fit in the GraphPad Prism (San Diego, Calif.) or Dotmatics' Studies Software (Bishops Stortford, UK). For EC50 of >10 μM, the percent inhibition at 10 μM is provided.

Assay [2] relates to primary human fibroblasts derived from IPF patients (LL29 cells). Nature of the assay: Inhibition of the fibrotic process: αSMA staining in TGF-β1 treated fibroblasts. The note with it: Fibroblast, 96 h, LL29 cells, TGF-β1 20 ng/mL, 4 days, % αSMA positive cells. An excerpt: Representative compounds were screened using primary human fibroblasts (derived from IPF patients) treated with TGF-β1 to determine their ability to inhibit the fibrotic process.
Human Fibroblast Cell Culture: Primary human fibroblasts derived from IPF patients (LL29 cells) [^1Xiaoqiu Liu, et. al., “Fibrotic Lung Fibroblasts Show Blunted Inhibition by cAMP Due to Deficient cAMP Response Element-Binding Protein Phosphorylation”, Journal of Pharmacology and Experimental Therapeutics (2005), 315(2), 678-687; ^2Watts, K. L., et. al., “RhoA signaling modulates cyclin D1 expression in human lung fibroblasts; implications for idiopathic pulmonary fibrosis”, Respiratory Research (2006), 7(1), 88] were obtained from American Type Culture Collection (ATCC) and expanded in F12 medium supplemented with 15% Fetal Bovine Serum and Penicillin/Streptomycin.
Compound Screening: Each compound was dissolved in DMSO as a 10 mM stock and used to prepare compound source plates. Serial dilution (1:2, 11-point dose-response curves from 10 μM to […]) and compound transfer was performed using the ECHO 550 (Labcyte, Sunnyvale, Calif.) into 384-well clear bottom assay plates (Greiner Bio-One) with appropriate DMSO backfill for a final DMSO concentration of 0.1%. LL29 cells are plated at 1,500 cells/well in 80 μL/well F12 medium supplemented with 1% Fetal Bovine Serum. One hour after addition of the cells, TGF-β1 (Peprotech; 20 ng/mL) was added to the plates to induce fibrosis (ref. 1 and 2 above). Wells treated with TGF-β1 and containing DMSO were used as controls. Cells were incubated at 37° C. and 5% CO2 for 4 days. Following incubation for 4 days, SYTOX green nucleic acid stain (Life Technologies [Thermo Fisher Scientific]) was added to the wells at a final concentration of 1 μM and incubated at room temperature for 30 min. Cells were then fixed using 4% formaldehyde (Electron Microscopy Sciences), washed 3 times with PBS followed by blocking and permeabilization using 3% Bovine Serum Albumin (BSA; Sigma) and 0.3% Triton X-100 (Sigma) in PBS. Cells were then stained with antibody specific to α-smooth muscle actin (αSMA; Abcam) (ref. 1 and 2 above) in 3% Bovine Serum Albumin (BSA; Sigma) and 0.3% Triton X-100 (Sigma) in PBS, and incubated overnight at 4° C. Cells were then washed 3 times with PBS, followed by incubation with Alexa Flor-647 conjugated secondary antibody (Life Technologies [Thermo Fisher Scientific]) and DAPI at room temperature for 1 hour. Cells were then washed 3 times with PBS and plates were sealed for imaging. αSMA staining was imaged by excitation at 630 nm and emission at 665 nm and quantified using the Compartmental Analysis program on the CellInsight CX5 (Thermo Scientific). Dead or apoptotic cells were excluded from analysis based on positive SYTOX green staining. % of total cells positive for αSMA were counted in each well and normalized to the average of 11 wells treated with TGF-β1 on the same plate using Dotmatics' Studies Software. The normalized averages (fold change over untreated) of 3 replicate wells for each compound concentration were used to create dose-responses curves and EC50 values were calculated using non-linear regression curve fit in the Dotmatics' Studies Software. For EC50 of >10 μM, the percent inhibition at 10 μM is provided.

The subject of a further assay is IL-6 (THP-1 cells). Nature of the assay: IL-6 inhibition in LPS-stimulated THP-1 cells (HTRF). The note with it: Homo sapiens; THP-1 cells, LPS 500 ng/mL, 22 hours, IL6 HTRF. The protocol:
Human Monocyte Cell Culture: Human monocyte cell line (THP-1 cells; Catalog # TIB-202, ATCC, Manassas, Va.) were cultured in Roswell Park Memorial Institute (RPMI) 1640 Medium (Catalog #21870-100, Buffalo, N.Y.) with 1% L-glutamine, 1% HEPES, 1% Sodium Pyruvate, 2% Sodium Bicarbonate supplemented with 100 units/mL penicillin, 50 μg/mL streptomycin, 2-mercaptoethanol (0.05 mM) [basal medium] and 10% fetal bovine serum (Catalog #16140089, Life Technologies, Carlsbad, Calif.) at 37° C. and 5% CO2.
Compound Screening: THP-1 cells were cultured in basal media with 1% FBS for 24 hours before the start of the assay. Each compound was dissolved in DMSO as a 10 mM stock and used to prepare compound source plates. Serial dilution (1:3, 10-point dose-response curves starting from 10 μM) and compound transfer was performed using the ECHO 550 (Labcyte, Sunnyvale, Calif.) into 384-well white low volume assay plates (Greiner Bio-One) with appropriate DMSO backfill for a final DMSO concentration of 0.1%. THP-1 cells were plated at 5000 cells/well in the 384-well plates and incubated at 37° C. for 2 h. 500 ng/mL of LPS was added after 2 hours and cells were incubated for another 22 hours at 37° C. Plates were spun in a centrifuge for 1 minute at […] and a mixture of anti-IL6 XL665, and anti-IL6 Cryptate diluted in reconstitution buffer (Cisbio Inc.) was added to each well. Following incubation for 3 hrs at room temperature, Homogeneous Time-Resolved Fluorescence (HTRF) was measured using the Envision (Perkin Elmer) at 665 nm and […]. The ratio of fluorescence at 665 nm to 620 nm was used as a readout for IL6 quantification. All samples were processed in duplicate. Readings were normalized to DMSO treated cells and normalized activities were utilized for EC50 calculations using the dose-response log (inhibitor) vs. response —variable slope (four parameters) nonlinear regression feature available in GraphPad Prism 5.0 (or Dotmatics). For EC50 of >10 μM, the percent inhibition at 10 μM is provided.

On to `CC(C)Nc1cncc(-c2ccc3[nH]nc(-c4cc5c(-c6cccs6)ccnc5[nH]4)c3n2)c1` [Compound 348, N-Isopropyl-5-(3-(4-(thiophen-2-yl)-1H-pyrrolo[2,3-b]pyridin-2-yl)-1H-pyrazolo[4,3-b]pyridin-5-yl)pyridin-3-amine], for which the 50% effective concentration (EC50) in assay [1] was 1.34 µM; in the assay on SW480 colon cancer cells it was 4.27 µM; in assay [2], 0.994 µM; with IL-6 (THP-1 cells), 1.35 µM.

As to `CN(C)CCNc1cc(F)cc(-c2ccnc3[nH]c(-c4n[nH]c5ccc(-c6cncc(NC(=O)c7ccccc7)c6)nc45)cc23)c1` [Compound 459, N-(5-(3-(4-(3-((2-(Dimethylamino)ethyl)amino)-5-fluorophenyl)-1H-pyrrolo [2,3-b]pyridin-2-yl)-1H-pyrazolo[4,3-b]pyridin-5-yl)pyridin-3-yl)benzamide], the EC50 in assay [1] was 1.5 µM; in the assay with SW480 colon cancer cells, 1.94 µM; in assay [2] it was 0.738 µM; in the assay with IL-6 (THP-1 cells) it was 0.009 µM.
